# From patent US12458021B2, “Microbiocidal derivatives” (SYNGENTA CROP PROTECTION AG, priority 2019, dated 2025)
# Experiments:
# [1] = system: Mycosphaerella graminicola (Septoria tritici); experiment: Mycosphaerella graminicola (Septoria tritici) / liquid culture (Septoria blotch); assay type: cell-based; conditions: Zymoseptoria tritici, PDB potato dextrose broth, 24° C., 4-5 days after application, read-out: control of Mycosphaerella graminicola (inhibition of growth, photometric)
# Method: (§1) Example B15: Mycosphaerella graminicola (Septoria tritici)/Liquid Culture (Septoria Blotch) Conidia of the fungus from cryogenic storage are directly mixed into nutrient broth (PDB potato dextrose broth). After placing a (DMSO) solution of test compound into a microtiter plate (96-well format), the nutrient broth containing the fungal spores is added. The test plates are incubated at 24° C. and the inhibition of growth is determined photometrically 4-5 days after application. […] […]-191.
# [2] = system: Glomerella lagenarium (Colletotrichum lagenarium); experiment: Glomerella lagenarium (Colletotrichum lagenarium) / liquid culture (anthracnose); assay type: cell-based; conditions: Colletotrichum orbiculare, PDB potato dextrose broth, 24° C., 3-4 days after application, read-out: control of Glomerella lagenarium (inhibition of growth, photometric)
# Method: as §1, with “B3: Glomerella lagenarium (Colletotrichum lagenarium)/Liquid” for “B15: Mycosphaerella graminicola (Septoria tritici)/Liquid”, “(Anthracnose)” for “(Septoria Blotch)”, “measured” for “determined”, “3-4” for “4-5”
# [3] = system: Monographella nivalis (Microdochium nivale); experiment: Monographella nivalis (Microdochium nivale) / liquid culture (foot rot cereals); assay type: cell-based; conditions: PDB potato dextrose broth, 24° C., 4-5 days after application, read-out: control of Monographella nivalis (inhibition of growth, photometric)
# Method: Example B7: Monographella nivalis (Microdochium nivale)/Liquid Culture (Foot Rot Cereals) Conidia of the fungus from cryogenic storage are directly mixed into nutrient broth (PDB potato dextrose broth). After placing a (DMSO) solution of test compound into a microtiter plate (96-well format), the nutrient broth containing the fungal spores is added. The test plates are incubated at 24° C. and the inhibition of growth is determined photometrically 4-5 days after application. […] […]-190.
# [4] = system: Blumeria graminis f. sp. tritici (Erysiphe graminis f. sp. tritici); experiment: Blumeria graminis f. sp. tritici / wheat / leaf disc preventative (powdery mildew on wheat); assay type: in vivo; conditions: foliar, wheat leaf segments cv. Kanzler, inoculated 1 day after application, assessed 6-8 days after application, read-out: control of Blumeria graminis f. sp. tritici (percent disease control compared to untreated)
# From the text: Example B4: Blumeria graminis f. sp. tritici (Erysiphe graminis f. sp. tritici)/Wheat/Leaf Disc Preventative (Powdery Mildew on Wheat) Wheat leaf segments cv. Kanzler are placed on agar in a multiwell plate (24-well format) and sprayed with the formulated test compound diluted in water. The leaf disks are inoculated by shaking powdery mildew infected plants above the test plates 1 day after application. […] […]-192.
SMILES,inhibition at 20 ppm [1],inhibition at 20 ppm [2],inhibition at 20 ppm [3],pest or weed control at 200 ppm [4]
"CC1(C)CCC1NC(=O)c1nc(Nc2cc(F)cc(F)c2)ccc1O (stereo not drawn) [Compound P-2, 6-(3,5-difluoroanilino)-N-(2,2-dimethylcyclobutyl)-3-hydroxy-pyridine-2-carboxamide]",≥ 80%,≥ 80%,≥ 80%,–
"O=C(NC1CCC12CCCC2)c1nc(Nc2cc(F)nc(F)c2)ccc1O (stereo not drawn) [Compound P-3, 6-[(2,6-difluoro-4-pyridyl)amino]-3-hydroxy-N-spiro[3.4]octan-3-yl-pyridine-2-carboxamide]",≥ 80%,≥ 80%,≥ 80%,–
"COc1cnc(Nc2cc(F)cc(F)c2)nc1C(=O)NCCC(C)C [Compound P-8, 2-(3,5-difluoroanilino)-N-isopentyl-5-methoxy-pyrimidine-4-carboxamide]",≥ 80%,≥ 80%,≥ 80%,–
"COc1cnc(Nc2cc(F)nc(F)c2)nc1C(=O)NCCC(C)C [Compound P-9, 2-[(2,6-difluoro-4-pyridyl)amino]-N-isopentyl-5-methoxy-pyrimidine-4-carboxamide]",–,–,–,≥ 80%
"COc1cnc(Nc2cc(F)nc(F)c2)nc1C(=O)NC1CCC1(C)C (stereo not drawn) [Compound P-11, 2-[(2,6-difluoro-4-pyridyl)amino]-N-(2,2-dimethylcyclobutyl)-5-methoxy-pyrimidine-4-carboxamide]",–,–,–,≥ 80%
"CC1(C)CCC1NC(=O)c1nc(Nc2ccccc2)ccc1O (stereo not drawn) [Compound P-16, 6-anilino-N-(2,2-dimethylcyclobutyl)-3-hydroxy-pyridine-2-carboxamide]",≥ 80%,≥ 80%,≥ 80%,–
"CC1(C)CCC1NC(=O)c1nc(Nc2ccnc(F)c2)ccc1O (stereo not drawn) [Compound P-18, N-(2,2-dimethylcyclobutyl)-6-[(2-fluoro-4-pyridyl)amino]-3-hydroxy-pyridine-2-carboxamide]",≥ 80%,≥ 80%,≥ 80%,–
"COc1ccc(Nc2cnsc2)nc1C(=O)NCc1ccc(Cl)cc1 [Compound P-37, N-[(4-chlorophenyl)methyl]-6-(isothiazol-4-ylamino)-3-methoxy-pyridine-2-carboxamide]",≥ 80%,≥ 80%,≥ 80%,–
"COc1ccc(Nc2cnsc2)nc1C(=O)NC(C)COc1cc(F)cc(F)c1 (stereo not drawn) [Compound P-38, N-[2-(3,5-difluorophenoxy)-1-methyl-ethyl]-6-(isothiazol-4-ylamino)-3-methoxy-pyridine-2-carboxamide]",≥ 80%,–,≥ 80%,–
"COc1ccc(Nc2cnsc2)nc1C(=O)NCCOc1ccc(Cl)cc1Cl [Compound P-39, N-[2-(2,4-dichlorophenoxy)ethyl]-6-(isothiazol-4-ylamino)-3-methoxy-pyridine-2-carboxamide]",≥ 80%,≥ 80%,≥ 80%,–
"COc1ccc(NCC2CC2)nc1C(=O)NCC(C)(C)C [Compound P-40, 6-(cyclopropylmethylamino)-N-(2,2-dimethylpropyl)-3-methoxy-pyridine-2-carboxamide]",≥ 80%,–,≥ 80%,–
"COc1ccc(NCC(C)(C)C)nc1C(=O)NCC(C)(C)C [Compound P-43, N-(2,2-dimethylpropyl)-6-(2,2-dimethylpropylamino)-3-methoxy-pyridine-2-carboxamide]",≥ 80%,–,≥ 80%,–
"COc1ccc(Nc2cc(F)nc(F)c2)nc1C(=O)NCc1cncn1Cc1ccccc1 [Compound P-48, N-[(3-benzylimidazol-4-yl)methyl]-6-[(2,6-difluoro-4-pyridyl)amino]-3-methoxy-pyridine-2-carboxamide]",–,–,–,≥ 80%
"COc1ccc(Nc2cc(F)nc(F)c2)nc1C(=O)NC1COC(C2CC2)C1 (stereo not drawn) [Compound P-50, N-(5-cyclopropyltetrahydrofuran-3-yl)-6-[(2,6-difluoro-4-pyridyl)amino]-3-methoxy-pyridine-2-carboxamide]",–,–,–,≥ 80%
"COc1ccc(Nc2cc(F)nc(F)c2)nc1C(=O)NCc1nn(C)c2ncccc12 [Compound P-51, 6-[(2,6-difluoro-4-pyridyl)amino]-3-methoxy-N-[(1-methylpyrazolo[3,4-b]pyridin-3-yl)methyl]pyridine-2-carboxamide]",–,–,–,≥ 80%
"COc1ccc(Nc2cc(F)nc(F)c2)nc1C(=O)NCC1(C)CCOC1 (stereo not drawn) [Compound P-53, 6-[(2,6-difluoro-4-pyridyl)amino]-3-methoxy-N-[(3-methyltetrahydrofuran-3-yl)methyl]pyridine-2-carboxamide]",–,–,–,≥ 80%
"COc1ccc(Nc2cc(F)nc(F)c2)nc1C(=O)NC1C2CCOC2C1(C)C (stereo not drawn) [Compound P-54, 6-[(2,6-difluoro-4-pyridyl)amino]-N-(7,7-dimethyl-2-oxabicyclo[3.2.0]heptan-6-yl)-3-methoxy-pyridine-2-carboxamide]",–,–,–,≥ 80%
"COc1ccc(Nc2cc(F)cc(F)c2)nc1C(=O)NC1CC2CCOC21 (stereo not drawn) [Compound P-59, 6-(3,5-difluoroanilino)-3-methoxy-N-(2-oxabicyclo[3.2.0]heptan-7-yl)pyridine-2-carboxamide]",≥ 80%,≥ 80%,–,≥ 80%
"COc1ccc(Nc2cc(F)cc(F)c2)nc1C(=O)NC1CC2(COC2)C1 [Compound P-64, 6-(3,5-difluoroanilino)-3-methoxy-N-(2-oxaspiro[3.3]heptan-6-yl)pyridine-2-carboxamide]",–,–,–,≥ 80%
"COc1ccc(Nc2cc(F)cc(F)c2)nc1C(=O)NCC1(c2ccc(Cl)nc2)CC1 [Compound P-73, N-[[1-(6-chloro-3-pyridyl)cyclopropyl]methyl]-6-(3,5-difluoroanilino)-3-methoxy-pyridine-2-carboxamide]",≥ 80%,≥ 80%,≥ 80%,–
"CCON=C(CNC(=O)c1nc(Nc2cc(F)cc(F)c2)ccc1OC)c1ncc(Cl)cc1Cl [Compound P-75, N-[2-(3,5-dichloro-2-pyridyl)-2-ethoxyimino-ethyl]-6-(3,5-difluoroanilino)-3-methoxy-pyridine-2-carboxamide]",≥ 80%,≥ 80%,≥ 80%,–
"C#CCOc1ccc(Nc2cc(F)cc(F)c2)nc1C(=O)NC(C)(C)C [Compound P-96, N-tert-butyl-6-(3,5-difluoroanilino)-3-prop-2-ynoxy-pyridine-2-carboxamide]",≥ 80%,–,≥ 80%,–
"COc1ccc(Nc2cc(F)cc(F)c2)nc1C(=O)NC1(C#N)CSC1 [Compound P-121, N-(3-cyanothietan-3-yl)-6-(3,5-difluoroanilino)-3-methoxy-pyridine-2-carboxamide]",≥ 80%,≥ 80%,≥ 80%,≥ 80%
"COc1ccc(Nc2cc(F)nc(F)c2)nc1C(=O)NC1(C)CCOC1 (stereo not drawn) [Compound P-124, 6-[(2,6-difluoro-4-pyridyl)amino]-3-methoxy-N-(3-methyltetrahydrofuran-3-yl)pyridine-2-carboxamide]",–,–,–,≥ 80%
"COc1ccc(Nc2ccc(F)cc2)nc1C(=O)NCC(C)(C)C [Compound P-133, N-(2,2-dimethylpropyl)-6-(4-fluoroanilino)-3-methoxy-pyridine-2-carboxamide]",≥ 80%,≥ 80%,≥ 80%,–
"COc1ccc(Nc2cccc(C)c2)nc1C(=O)NCC(C)(C)C [Compound P-140, N-(2,2-dimethylpropyl)-3-methoxy-6-(3-methylanilino)pyridine-2-carboxamide]",≥ 80%,≥ 80%,≥ 80%,–
"COc1ccc(Nc2ccc(C(F)(F)F)cc2)nc1C(=O)NC(C)(C)C [Compound P-150, N-tert-butyl-3-methoxy-6-[4-(trifluoromethyl)anilino]pyridine-2-carboxamide]",–,≥ 80%,≥ 80%,–
"COc1ccc(Nc2cncnc2)nc1C(=O)NC(C)(C)C [Compound P-166, N-tert-butyl-3-methoxy-6-(pyrimidin-5-ylamino)pyridine-2-carboxamide]",–,–,–,≥ 80%
